We go through 30 compounds from patent US7459450B2, “Neuropeptide receptor modulators” (Schering Corporation, priority 2004, dated 2008).

For orientation: Ki means a measure of affinity in units of concentration, obtained from inhibition or displacement. Read a low Ki as higher affinity.

Bounds are passed on as bounds.

The target of the first assay is T1, Human NPY Y1 receptors (Homo sapiens, UniProt P25929).
T1 construct: expressed in transfected cells; host or cells: CHO cells (membrane protein)
T1 sequence (P25929 1-384): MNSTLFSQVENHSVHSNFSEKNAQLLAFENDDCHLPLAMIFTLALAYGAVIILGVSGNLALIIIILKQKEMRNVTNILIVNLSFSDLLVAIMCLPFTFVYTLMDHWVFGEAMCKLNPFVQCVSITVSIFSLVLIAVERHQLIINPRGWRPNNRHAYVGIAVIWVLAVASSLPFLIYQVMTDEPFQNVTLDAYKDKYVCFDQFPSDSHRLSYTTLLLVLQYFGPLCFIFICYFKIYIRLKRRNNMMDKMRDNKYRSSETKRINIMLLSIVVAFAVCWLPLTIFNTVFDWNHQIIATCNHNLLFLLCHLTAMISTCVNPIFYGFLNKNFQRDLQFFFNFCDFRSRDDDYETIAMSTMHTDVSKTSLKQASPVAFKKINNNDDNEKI
The assay is described as follows: NPY Receptor Binding Assay.
Settings: not given
The procedure: NPY Receptor Binding Assay
Human NPY Y1 receptors were expressed in CHO cells. Binding assays were performed in 50 mM HEPES, pH 7.2, 2.5 mM CaCl2, 1 mM MgCl2 and 0.1% BSA containing 5-10 μg of membrane protein and 0.1 nM […] in a total volume of 200 μl. Non-specific binding was determined in the presence of 1 μM NPY. The reaction mixtures were incubated for 90 minutes at room temperature then filtered through Millipore MAFC glass fiber filter plates which had been pre-soaked in 0.5% polyethleneimine. The filters were washed with phosphate-buffered saline, and radioactivity was measured in a Packard TopCount scintillation counter.
In the case of `Cc1cccc2sc(NCCc3ccc(/N=C4/N[C@@H](C(C)C)C(=O)S4)cc3)nc12` [Example 371], the Ki is greater than 10 µM.

Compound `O=C1CN/C(=N\c2cccc(CCNc3nc4ccccc4s3)c2)S1` [Example 376] registered a Ki greater than 10 µM.

In turn, `CC(C)C[C@@H]1N/C(=N/c2ccc(CCNc3nc4ccccc4s3)cc2)SC1=O` [Example 396] displayed a Ki greater than 10 µM.

For `COc1ccc2nc(NCCc3ccc(/N=C4/N[C@@H](C)C(=O)S4)cc3)sc2c1` [Example 349], the Ki was greater than 10 µM.

For the compound `O=C1S/C(=N\c2ccc(CCNc3nc4ccccc4s3)cc2)N2CCC[C@@H]12` [Example 398], the Ki was greater than 10 µM.

`CC(C)[C@@H]1N/C(=N\c2cccc(CCNc3nc4ccccc4s3)c2)SC1=O` [Example 407] had a Ki greater than 10 µM.

In turn, `O=C1CN/C(=N/c2ccc(CCNc3nc4ccccc4s3)cc2)S1` [Example 377] gave a Ki greater than 10 µM.

Consider `CC(C)[C@@H]1N/C(=N/c2ccc(CCNc3nc4ccc(Cl)cc4s3)cc2)SC1=O` [Example 384], for which the Ki was greater than 10 µM.

The same assay, now with this note: Procedure C compounds, rated A/B/C.
In turn, `CC(C)C[C@@H]1N=C(Nc2ccc(CCNc3nc4ccccc4s3)cc2)N(C(=O)c2ccccc2)C1=O` [Example 53] showed a Ki greater than 10 µM.

The same assay, now with this note: Procedure E compounds, rated A/B/C.
As to `CC[C@@H]1CS/C(=N\c2ccc(CCNc3nc4ccc(Cl)cc4s3)cc2)N1` [Example 110], the Ki was less than 1 µM.

The compound `C=C(C)CN1/C(=N/c2ccc(CCNc3nc4ccc(C)cc4s3)cc2)SC2Cc3ccccc3[C@@H]21` (stereo partly drawn) [Example 225] showed a Ki greater than 10 µM.

In the case of `Fc1ccc2nc(NCCc3ccc(/N=C4/NCCCS4)cc3)sc2c1` [Example 211], the inhibition constant (Ki) is less than 1 µM.

On to `COc1ccc2nc(NCCc3ccc(/N=C4\SCCN4C)cc3)sc2c1` [Example 80], for which the Ki was greater than 10 µM.

Compound `Clc1cc2nc(NCCc3ccc(N=C4NCCCS4)cc3)sc2cc1Cl` [Example 72] came in with a Ki of less than 1 µM.

In turn, `C[C@@H]1CS/C(=N\c2ccc(CCNc3nc4ccc(Cl)cc4s3)cc2)N1` [Example 109] showed an inhibition constant (Ki) of 1 to 10 µM.

`CC[C@@H]1CS/C(=N\c2ccc(CCNc3nc4ccc(S(C)(=O)=O)cc4s3)cc2)N1` [Example 115] gave a Ki of 1 to 10 µM.

`c1ccc(C2CCS/C(=N/c3cccc(CCNc4nc5ccccc5s4)c3)N2)cc1` (stereo not drawn) [Example 71] returned a Ki greater than 10 µM.

In the case of `COc1ccc2nc(NCCc3ccc(/N=C4/N[C@@H](C(C)C)CS4)cc3)sc2c1` [Example 216], the Ki lay in the range of 1 to 10 µM.

Compound `CCCC1CS/C(=N\c2ccc(CCNc3nc4ccc(OC)cc4s3)cc2)N1` (stereo not drawn) [Example 214] showed a Ki of less than 1 µM.

As for `CS(=O)(=O)c1ccc2nc(NCCc3ccc(/N=C4/N[C@@H](Cc5c[nH]cn5)CS4)cc3)sc2c1` [Example 116], the Ki is 1 to 10 µM.

The compound `CN1CCS/C1=N/c1cccc(CCNc2nc3ccccc3s2)c1` [Example 182] gave a Ki greater than 10 µM.

With `c1ccc2sc(NCCc3ccc(/N=C4/N[C@@H](Cc5c[nH]cn5)CS4)cc3)nc2c1` [Example 270], the Ki was less than 1 µM.

In turn, `Cc1ccc2nc(NCCc3ccc(/N=C4/N[C@@H](Cc5ccccc5)CS4)cc3)sc2c1` [Example 87] yielded a Ki of 1 to 10 µM.

The same assay, now with this note: Procedure G compounds, rated A/B/C.
As for `c1ccc(-c2nc(Nc3ccc(CCNc4nc5ccccc5s4)cc3)sc2-c2ccccc2)cc1` [Example 421], the Ki was greater than 10 µM.

Compound `CCOC(=O)c1sc(Nc2ccc(CCNc3nc4ccccc4s3)cc2)nc1C(F)(F)F` [Example 432] came in with an inhibition constant (Ki) greater than 10 µM.

`Fc1ccc(-c2csc(Nc3ccc(CCNc4nc5ccccc5s4)cc3)n2)cc1` [Example 420] yielded a Ki greater than 10 µM.

`CCc1csc(Nc2ccc(CCNc3nc4ccccc4s3)cc2)n1` [Example 430]: the inhibitory constant (Ki) is greater than 10 µM.

Staying with this assay, now noted: Table 1, rated A/B/C.
Compound `CC(C)C1CCSC(Nc2ccc(CCNc3nc4ccccc4s3)cc2)=N1` (stereo not drawn) [Example 10] gave a Ki of less than 1 µM.

As for `c1ccc([C@@H]2CSC(Nc3ccc(CCNc4nc5ccccc5s4)cc3)=N2)cc1` [Example 7], the Ki was less than 1 µM.

With `c1ccc([C@H]2CSC(Nc3ccc(CCNc4nc5ccccc5s4)cc3)=N2)cc1` [Example 8], the inhibitory constant (Ki) was 1 to 10 µM.
